Measured values reported in US10092621B2 (priority 2014, dated 2018).
Marks after values point to notes of the source that are not given here.

Key:
[1] = test system: intensive care unit patients with severe septic shock; conditions: esmolol group; […] in the control group; cited from earlier work
[2] = test system: healthy volunteers; assay: Phase 1 SAD/MAD study: growth hormone levels; assay type: in vivo, human; conditions: for GH level spike: 150 μg/kg TID
Protocol: A randomized, double-blind, placebo-controlled, single and multiple ascending IV dose (SAD and MAD), sequential-group study to assess the safety, tolerability, PK, and PD of ulimorelin in healthy subjects was initiated and conducted as follows.
Levels on Day 1 were meaningfully greater than those seen in placebo subjects at any timepoint (pooled placebo mean GH levels were 3.2 μg/L and ranged from about 0.1 to 11 μg/L). Over time, the spikes in GH levels diminished but remained measureable and within or slightly greater than the expected physiological range of the assay (0-0.8 μg/L for males and 0-8 μg/L for females).

[3] = test system: healthy volunteers; assay: Phase 1 MAD study: gastric emptying by scintigraphic imaging; assay type: in vivo, human; conditions: for Gastric Emptying Day 1 Improvement Over Baseline T25% / Gastric Emptying Day 1 Improvement Over Baseline T50%: single dose Day 1; for acceleration of liquid meal emptying (GET50) vs pre-dosing baseline: TID
Protocol: Healthy male and female volunteers aged 18 to 55 years participated in the trial. […] The doses studied were SAD: 600, 1200, and 900 μg/kg and MAD: 300, 150, and 80 μg/kg q8H for seven days.

[4] = test system: diabetic gastroparesis patients; conditions: cited from earlier work
[5] = test system: patients with post-operative ileus; conditions: Phase 2, once daily dosing for up to 7 days; cited from earlier work

For `COC(=O)CCc1ccc(OCC(O)CNC(C)C)cc1` (centres unmarked) [esmolol], the twenty-eight day mortality [1] is given as 49.4%.
For ulimorelin, the “Mean Max GH” value ([2]; Female, 150 μg/kg, Day 1) was 18.8 μ/L, the “Mean Max GH” value ([2]; Female, 150 μg/kg, Day 4) was 10.7 μ/L and the “Mean Max GH” value ([2]; Female, 150 μg/kg, Day 7) was 6.2 μ/L. For the same molecule, the “Mean Max GH” value ([2]; Female, 300 μg/kg, Day 1) was 41.5 μ/L, the “Mean Max GH” value ([2]; Female, 300 μg/kg, Day 4) was 31.5 μ/L and the “Mean Max GH” value ([2]; Female, 600 μg/kg, Day 1) was 77.9 μ/L. For the same molecule, the “Mean Max GH” value ([2]; Female, 900 μg/kg, Day 1) was 83.4 μ/L, the “Mean Max GH” value ([2]; Female, 1200 μg/kg, Day 1) was 76.0 μ/L and the “Mean Max GH” value ([2]; Male, 150 μg/kg, Day 1) was 11.4 µg/L. The “Mean Max GH” value ([2]; Male, 150 μg/kg, Day 4) was 2.4 µg/L, the “Mean Max GH” value ([2]; Male, 150 μg/kg, Day 7) was 1.7 µg/L and the “Mean Max GH” value ([2]; Male, 300 μg/kg, Day 1) was 18.7 µg/L. The “Mean Max GH” value ([2]; Male, 300 μg/kg, Day 4) was 4.0 µg/L, the “Mean Max GH” value ([2]; Male, 300 μg/kg, Day 7) was 3.0 µg/L and the “Mean Max GH” value ([2]; Male, 600 μg/kg, Day 1) was 41.7 µg/L. For the same molecule, the “Mean Max GH” value ([2]; Male, 900 μg/kg, Day 1) was 79.7 µg/L, the “Mean Max GH” value ([2]; Male, 1200 μg/kg, Day 1) was 53.0 µg/L and the “Mean Max GH” value ([2]; Person, 300 μg/kg, Day 7, n = 1) was 11.3* μ/L. For the same molecule, the GH level spike ([2]; females, Day 1) was ~19 µg/L, the GH level spike ([2]; males, Day 1) was ~11 µg/L and the “Gastric Emptying Day 4 Improvement Over Baseline T25%” value ([3]; 80 μg/kg q8H) was 35%. The “Gastric Emptying Day 4 Improvement Over Baseline T50%” value ([3]; 80 μg/kg q8H) was 26%, the “Gastric Emptying Day 1 Improvement Over Baseline T25%” value ([3]; 80 μg/kg) was 30% and the “Gastric Emptying Day 1 Improvement Over Baseline T50%” value ([3]; 80 μg/kg) was 14%. For the same molecule, the “Gastric Emptying Day 4 Improvement Over Baseline T25%” value ([3]; 150 μg/kg q8H) was 25%, the “Gastric Emptying Day 4 Improvement Over Baseline T50%” value ([3]; 150 μg/kg q8H) was 23%* and the “Gastric Emptying Day 1 Improvement Over Baseline T25%” value ([3]; 150 μg/kg) was 45%*. For the same molecule, the “Gastric Emptying Day 1 Improvement Over Baseline T50%” value ([3]; 150 μg/kg) was 34%*, the “Gastric Emptying Day 4 Improvement Over Baseline T25%” value ([3]; 300 μg/kg q8H) was 31% and the “Gastric Emptying Day 4 Improvement Over Baseline T50%” value ([3]; 300 μg/kg q8H) was 27%*. For the same molecule, the “Gastric Emptying Day 1 Improvement Over Baseline T25%” value ([3]; 300 μg/kg) was 54%*, the “Gastric Emptying Day 1 Improvement Over Baseline T50%” value ([3]; 300 μg/kg) was 46%* and the “acceleration of liquid meal emptying (GET50) vs pre-dosing baseline” value ([3]; Day 1, both treatment groups) was “greater than 30%”. The “acceleration of liquid meal emptying (GET50) vs pre-dosing baseline” value ([3]; Day 4, both treatment groups) was > 20%, the gastric emptying ([4]; Phase 2, 10 patients with diabetic gastroparesis, 30 min IV infusion once daily) was “accelerated gastric emptying of solid and liquid food” and the GCSI scores ([4]; additional Phase 2 study of diabetic gastroparesis patients) was “improvements in GCSI Loss of Appetite and Vomiting scores”. The “time to first bowel movement (BM)” value [5] was “shortened time to first bowel movement”.
